The target of one experiment is T1, succinate dehydrogenase (Botrytis cinerea, UniProt A0A384J5E4+A0A384J8V8+A0A384JHJ5).
T1 construct: succinate-DCPIP reductase assay with KCN
Description: Enzyme inhibition: succinate dehydrogenase activity in Botrytis cinerea mitochondria (DCPIP reduction). The settings on record: concentration required to inhibit the rate of DCPIP reduction by 50%; Botrytis cinerea isolate Nick mitochondria; read-out: I50 (μM conc.). It counts as biochemical. In outline:
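DCPIP (45 μM) reduction at 600 nm tracked with 17 mM succinate, 1 mM KCN and 50 mM potassium phosphate, pH 7.2. Compounds were added in acetone (final 1% v/v), and Botrytis cinerea isolate Nick mitochondrial fraction initiated the reaction. Rates minus endogenous activity gave percentage inhibition, plotted semilog against concentration to derive I50 (μM).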

The subject of a further experiment is Rhizoctonia solani. Description: Rice sheath blight. Format: in vivo. More on the design: scale not given here. The settings on record: inoculated two days later, rated after 7 days, average of five plants; for Disease Control Rating at 0.02 mg/mL: foliage and soil sprayed with 0.02 mg/mL; for Disease Control Rating at 0.1 mg/mL: foliage and soil sprayed with 0.1 mg/mL; for Disease Control Rating at 0.5 mg/mL: foliage and soil sprayed with 0.5 mg/mL. The procedure, abridged:
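Preventive test: R. solani inoculum on rice grain was applied at the plant base two days after spraying foliage and soil with Compound A (0.5, 0.1 or 0.02 mg/mL, water/acetone/Tween 20). Plants aged 11–15 days stood in flood trays; after 7 days at 25 °C and high humidity, disease control was rated against untreated plants, five plants averaged.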

Experiment [1] concerns Botrytis cinerea. The experiment in a line: Eggplant grey mold. The settings on record: inoculated 24 h later, rated after 3-4 days; for Disease Control Rating at 20 ppm: eggplant sprayed with 20 ppm; for Disease Control Rating at 100 ppm: eggplant sprayed with 100 ppm; for Disease Control Rating at 500 ppm: eggplant sprayed with 500 ppm. It counts as in vivo. More on the design: scale not given here. The procedure, abridged:
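Protective test: compound formulations (2:3 acetone:water, 0.5% Tween 20; 500, 100 or 20 ppm) sprayed on 14-18-day-old plants, with spore inoculum (4×10^6 spore/mL) applied a day later. Disease control rated on Botrytis lesions after 3-4 days at 23 °C and 100% humidity.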

For experiment [2], the system named is Botrytis cinerea. The experiment in a line: Vine grey mold (grape berries). Format: in vivo. Conditions: average of six berries, 7-10 days; for pest or weed control at 50 ppm: grape berries treated with 50 ppm, read-out: % DISEASE CONTROL 50 ppm; for pest or weed control at 200 ppm: grape berries treated with 200 ppm, read-out: % DISEASE CONTROL 200 ppm. In outline:
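Preventive berry test: compound at 50 or 200 ppm (acetone/water, 0.05% Tween 20) applied one day before inoculation with 10^6 spores/mL Botrytis conidia. After 7-10 days at 20 °C under 12 h light, infected surface area rated; disease control expressed as percent reduction from control mean; repeated-test values averaged.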

T1 sequence (A0A384J5E4 1-300): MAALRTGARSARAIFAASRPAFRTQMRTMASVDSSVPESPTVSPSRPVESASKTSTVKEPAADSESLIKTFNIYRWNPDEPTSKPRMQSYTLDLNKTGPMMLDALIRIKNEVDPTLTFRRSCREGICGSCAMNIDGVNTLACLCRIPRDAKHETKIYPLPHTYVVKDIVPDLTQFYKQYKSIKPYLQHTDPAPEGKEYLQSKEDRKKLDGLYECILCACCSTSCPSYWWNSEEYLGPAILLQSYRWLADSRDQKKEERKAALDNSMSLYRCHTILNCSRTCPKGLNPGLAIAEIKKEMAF
T1 sequence (A0A384J8V8 1-189): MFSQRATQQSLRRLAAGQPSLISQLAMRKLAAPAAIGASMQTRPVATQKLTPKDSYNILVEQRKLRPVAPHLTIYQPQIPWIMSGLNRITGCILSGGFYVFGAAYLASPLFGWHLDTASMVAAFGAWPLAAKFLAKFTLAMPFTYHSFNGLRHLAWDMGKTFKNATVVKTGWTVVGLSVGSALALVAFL
T1 sequence (A0A384JHJ5 1-192): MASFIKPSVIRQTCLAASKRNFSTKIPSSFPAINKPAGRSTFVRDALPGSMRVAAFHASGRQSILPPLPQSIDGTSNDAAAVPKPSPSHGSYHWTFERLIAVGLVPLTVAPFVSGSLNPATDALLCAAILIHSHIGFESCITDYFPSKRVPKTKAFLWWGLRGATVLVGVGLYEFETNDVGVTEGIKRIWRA
T1 sequence (A0A384K456 1-647 partner): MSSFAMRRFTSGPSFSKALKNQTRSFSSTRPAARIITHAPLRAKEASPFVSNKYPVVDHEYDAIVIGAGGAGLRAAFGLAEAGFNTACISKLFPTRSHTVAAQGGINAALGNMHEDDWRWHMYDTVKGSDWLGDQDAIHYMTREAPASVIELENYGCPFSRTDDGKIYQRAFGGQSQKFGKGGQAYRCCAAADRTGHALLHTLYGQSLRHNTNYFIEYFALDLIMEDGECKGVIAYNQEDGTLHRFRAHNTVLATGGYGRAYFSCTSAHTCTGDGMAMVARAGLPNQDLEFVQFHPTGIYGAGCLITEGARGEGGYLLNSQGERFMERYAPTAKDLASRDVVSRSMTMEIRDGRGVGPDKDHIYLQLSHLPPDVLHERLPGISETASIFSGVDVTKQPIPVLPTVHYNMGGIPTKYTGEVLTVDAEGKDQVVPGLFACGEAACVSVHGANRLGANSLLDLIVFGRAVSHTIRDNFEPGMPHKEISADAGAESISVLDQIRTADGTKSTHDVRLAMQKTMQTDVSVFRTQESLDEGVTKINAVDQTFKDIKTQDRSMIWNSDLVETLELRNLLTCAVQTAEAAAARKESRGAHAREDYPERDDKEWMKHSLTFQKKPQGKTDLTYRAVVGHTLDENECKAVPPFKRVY

As to `Cc1nn(C)cc1C(=O)Nc1ccccc1C1CCCCCCC1` [Example 41, 1H-pyrazole-4-carboxamide, N-(2-cyclooctylphenyl)-1,3-dimethyl-], the IC50 on succinate dehydrogenase amounted to 0.021 µM. In the experiment on Rhizoctonia solani, the “Disease Control Rating at 0.02 mg/mL” value is recorded as 1, the “Disease Control Rating at 0.1 mg/mL” value stood at 3 and the “Disease Control Rating at 0.5 mg/mL” value came to 3. In addition, in the experiment with Botrytis cinerea [1], the “Disease Control Rating at 20 ppm” value was 0, the “Disease Control Rating at 100 ppm” value came out at 0 and the “Disease Control Rating at 500 ppm” value amounted to 3. In the experiment on Botrytis cinerea [2], the pest or weed control at 50 ppm was determined as 34% and the pest or weed control at 200 ppm was found to be 37%.
As for `Cn1cc(C(=O)Nc2ccccc2C=C2CCCCCC2)c(C(F)F)n1` [Example 147, 1H-pyrazole-4-carboxamide, N-[2-(cycloheptylidenemethyl)phenyl]-1-methyl-3-(difluoromethyl)-], on succinate dehydrogenase, the IC50 came out at 0.02 µM. Besides, the “Disease Control Rating at 0.5 mg/mL” value in the experiment with Rhizoctonia solani is reported as 2. In addition, in the experiment on Botrytis cinerea [1], the “Disease Control Rating at 20 ppm” value was 0, the “Disease Control Rating at 100 ppm” value stood at 0 and the “Disease Control Rating at 500 ppm” value was determined as 0. Also, in the experiment with Botrytis cinerea [2], the pest or weed control at 50 ppm is 0% and the pest or weed control at 200 ppm was determined as 0%.
Turning to `Cn1cc(C(=O)Nc2ccccc2C2=CCCCCC2)c(C(F)(F)F)n1` [Example 112, 1H-pyrazole-4-carboxamide, N-[2-(1-cyclohepten-1-yl)phenyl]-1-methyl-3-(trifluoromethyl)-], the IC50 on succinate dehydrogenase came out at 0.0021 µM. The “Disease Control Rating at 0.5 mg/mL” value with Rhizoctonia solani was 0. In addition, in the experiment on Botrytis cinerea [1], the “Disease Control Rating at 20 ppm” value is listed as 2, the “Disease Control Rating at 100 ppm” value turned out to be 3 and the “Disease Control Rating at 500 ppm” value is recorded as 3. In the experiment with Botrytis cinerea [2], the pest or weed control at 50 ppm was 88% and the pest or weed control at 200 ppm came out at 95%.
Regarding `Cn1cc(C(=O)Nc2ccccc2OC2(C)CCCC2)c(C(F)F)n1` [Example 35, 1H-pyrazole-4-carboxamide, 3-(difluoromethyl)-1-methyl-N-[2-(1-methylcyclopentyloxy)phenyl]-], at succinate dehydrogenase, the IC50 stood at 0.012 µM. For the same compound, in the experiment with Rhizoctonia solani, the “Disease Control Rating at 0.02 mg/mL” value was 2, the “Disease Control Rating at 0.1 mg/mL” value came to 3 and the “Disease Control Rating at 0.5 mg/mL” value turned out to be 3. Besides, in the experiment on Botrytis cinerea [1], the “Disease Control Rating at 20 ppm” value was determined as 2, the “Disease Control Rating at 100 ppm” value is recorded as 3 and the “Disease Control Rating at 500 ppm” value was 3. Moreover, in the experiment with Botrytis cinerea [2], the pest or weed control at 50 ppm was 42% and the pest or weed control at 200 ppm amounted to 46%.
Consider `Cc1ccc(C2CCCCC2)c(NC(=O)c2cn(C)nc2C(F)(F)F)c1` [Example 18, 1H-pyrazole-4-carboxamide, N-(2-cyclohexyl-5-methylphenyl)-1-methyl-3-(trifluoromethyl)-], for which, on succinate dehydrogenase, the IC50 came to 0.031 µM. The “Disease Control Rating at 0.5 mg/mL” value in the experiment on Rhizoctonia solani worked out at 0. Further, in the experiment on Botrytis cinerea [1], the “Disease Control Rating at 500 ppm” value was 0. Besides, in the experiment on Botrytis cinerea [2], the pest or weed control at 50 ppm amounted to 0% and the pest or weed control at 200 ppm is 0%.
`Cn1cc(C(=O)Nc2ccccc2[C@@H]2C[C@H]3CC[C@@H]2C3)c(I)n1` (relative stereo) [Example 58, 1H-pyrazole-4-carboxamide, N-(2-bicyclo[2.2.1]hept-2-ylphenyl)-3-iodo-1-methyl-, exo-]: the IC50 at succinate dehydrogenase came out at 0.0086 µM. Moreover, the “Disease Control Rating at 0.5 mg/mL” value in the experiment on Rhizoctonia solani was determined as 2. Also, in the experiment with Botrytis cinerea [1], the “Disease Control Rating at 20 ppm” value turned out to be 0, the “Disease Control Rating at 100 ppm” value was 0 and the “Disease Control Rating at 500 ppm” value was 2. For the same compound, in the experiment with Botrytis cinerea [2], the pest or weed control at 50 ppm stood at 51% and the pest or weed control at 200 ppm came to 78%.
On to `C[C@@H]1CCC[C@@H](C)C1Oc1ccccc1NC(=O)c1cn(C)nc1C(F)(F)F` (relative stereo) [Example 75, 1H-pyrazole-4-carboxamide, 1-methyl-N-[2-[(2,6-dimethylcyclohexyl)oxy]phenyl]-3-(trifluoromethyl)-, (1alpha,2alpha,6beta)-], for which the IC50 on succinate dehydrogenase is 0.013 µM. For the same compound, the “Disease Control Rating at 0.5 mg/mL” value in the experiment on Rhizoctonia solani amounted to 0. The “Disease Control Rating at 500 ppm” value with Botrytis cinerea [1] is given as 0. Further, in the experiment on Botrytis cinerea [2], the pest or weed control at 50 ppm stood at 6% and the pest or weed control at 200 ppm turned out to be 0%.
As for `Cn1cc(C(=O)Nc2ccccc2OCCCC2CCCC2)c(C(F)F)n1` [Example 48, 1H-pyrazole-4-carboxamide, N-[2-(3-cyclopentylpropoxy)phenyl]-3-(difluoromethyl)-1-methyl-], the IC50 at succinate dehydrogenase stood at 0.02 µM. In addition, the “Disease Control Rating at 0.5 mg/mL” value in the experiment on Rhizoctonia solani amounted to 2. In the experiment on Botrytis cinerea [1], the “Disease Control Rating at 500 ppm” value turned out to be 0. Besides, in the experiment on Botrytis cinerea [2], the pest or weed control at 50 ppm was determined as 10% and the pest or weed control at 200 ppm worked out at 0%.
With `CC1CC=C(c2ccccc2NC(=O)c2cn(C)nc2C(F)F)C1` (centres unmarked) [Example 149, 1H-pyrazole-4-carboxamide, N-[2-(4-methyl-1-cyclopenten-1-yl)phenyl]-1-methyl-3-(difluoromethyl)-], the IC50 on succinate dehydrogenase was 0.013 µM. The “Disease Control Rating at 0.5 mg/mL” value with Rhizoctonia solani is on record as 3. In the experiment with Botrytis cinerea [1], the “Disease Control Rating at 20 ppm” value was determined as 0, the “Disease Control Rating at 100 ppm” value is 0 and the “Disease Control Rating at 500 ppm” value is listed as 1. Also, in the experiment with Botrytis cinerea [2], the pest or weed control at 50 ppm came to 95% and the pest or weed control at 200 ppm came out at 100%.
Consider `Cn1cc(C(=O)Nc2ccccc2C2=CCCCC2C(C)(C)C)c(C(F)(F)F)n1` (centres unmarked) [Example 141, 1H-pyrazole-4-carboxamide, N-[2-[6-(1,1-dimethylethyl)-1-cyclohexen-1-yl]phenyl]-1-methyl-3-(trifluoromethyl)-], for which, on succinate dehydrogenase, the IC50 is 0.049 µM. Further, the “Disease Control Rating at 0.5 mg/mL” value in the experiment on Rhizoctonia solani stood at 3. Besides, in the experiment on Botrytis cinerea [1], the “Disease Control Rating at 20 ppm” value is recorded as 0, the “Disease Control Rating at 100 ppm” value was 0 and the “Disease Control Rating at 500 ppm” value is listed as 1. For the same compound, in the experiment with Botrytis cinerea [2], the pest or weed control at 50 ppm came to 12% and the pest or weed control at 200 ppm was 12%.
Regarding `Cc1ccc(OC2CCCCC2)c(NC(=O)c2cn(C)nc2C(F)(F)F)c1` [Example 97, 1H-pyrazole-4-carboxamide, N-[2-(cyclohexyloxy)-5-methylphenyl]-1-methyl-3-(trifluoromethyl)-], the IC50 on succinate dehydrogenase worked out at 0.59 µM. In addition, in the experiment with Rhizoctonia solani, the “Disease Control Rating at 0.5 mg/mL” value was 0. Also, in the experiment on Botrytis cinerea [1], the “Disease Control Rating at 20 ppm” value was 0, the “Disease Control Rating at 100 ppm” value was determined as 0 and the “Disease Control Rating at 500 ppm” value is reported as 1. Further, in the experiment with Botrytis cinerea [2], the pest or weed control at 50 ppm came to 0% and the pest or weed control at 200 ppm was 1%.
With `Cc1nn(C)cc1C(=O)Nc1ccccc1C1CCCCC1` [Example 3, 1H-pyrazole-4-carboxamide, N-(2-cyclohexylphenyl)-1,3-dimethyl-], the IC50 at succinate dehydrogenase was 0.027 µM. Moreover, in the experiment with Rhizoctonia solani, the “Disease Control Rating at 0.5 mg/mL” value is reported as 0. Further, in the experiment on Botrytis cinerea [1], the “Disease Control Rating at 20 ppm” value was found to be 0, the “Disease Control Rating at 100 ppm” value turned out to be 1 and the “Disease Control Rating at 500 ppm” value amounted to 2. Besides, in the experiment on Botrytis cinerea [2], the pest or weed control at 50 ppm turned out to be 10% and the pest or weed control at 200 ppm came to 62%.
Turning to `Cn1cc(C(=O)Nc2ccccc2C2CCCCCC2)c(C(F)(F)Cl)n1` [Example 92, 1H-pyrazole-4-carboxamide, 3-(chlorodifluoromethyl)-N-(2-cycloheptylphenyl)-1-methyl-], the IC50 at succinate dehydrogenase turned out to be 0.062 µM. In addition, in the experiment on Rhizoctonia solani, the “Disease Control Rating at 0.02 mg/mL” value turned out to be 0, the “Disease Control Rating at 0.1 mg/mL” value is on record as 1 and the “Disease Control Rating at 0.5 mg/mL” value is listed as 2. For the same compound, the “Disease Control Rating at 500 ppm” value in the experiment on Botrytis cinerea [1] was determined as 0. Besides, in the experiment on Botrytis cinerea [2], the pest or weed control at 50 ppm amounted to 36% and the pest or weed control at 200 ppm was found to be 30%.
In the case of `Cn1cc(C(=O)Nc2ccccc2OCCCC2CCCC2)c(C(F)(F)F)n1` [Example 49, 1H-pyrazole-4-carboxamide, N-[2-(3-cyclopentylpropoxy)phenyl]-1-methyl-3-(trifluoromethyl)-], the IC50 at succinate dehydrogenase is 0.047 µM. Moreover, the “Disease Control Rating at 0.5 mg/mL” value with Rhizoctonia solani is listed as 0. For the same compound, the “Disease Control Rating at 500 ppm” value in the experiment on Botrytis cinerea [1] is recorded as 0. In addition, in the experiment with Botrytis cinerea [2], the pest or weed control at 50 ppm amounted to 4% and the pest or weed control at 200 ppm was found to be 0%.
On to `Cn1cc(C(=O)Nc2ccccc2C2=CCCCC2)c(C(F)F)n1` [Example 109, 1H-pyrazole-4-carboxamide, N-[2-(1-cyclohexen-1-yl)phenyl]-3-(difluoromethyl)-1-methyl-], for which the IC50 on succinate dehydrogenase turned out to be 0.0072 µM. Besides, in the experiment on Rhizoctonia solani, the “Disease Control Rating at 0.02 mg/mL” value turned out to be 0, the “Disease Control Rating at 0.1 mg/mL” value amounted to 1 and the “Disease Control Rating at 0.5 mg/mL” value was 3. Further, in the experiment with Botrytis cinerea [1], the “Disease Control Rating at 500 ppm” value amounted to 0. Also, in the experiment with Botrytis cinerea [2], the pest or weed control at 50 ppm was 100% and the pest or weed control at 200 ppm came to 100%.

These data come from patent US5223526A, “Pyrazole carboxanilide fungicides and use” (Monsanto Company, priority 1992, dated 1993).
